Source: paper PMC10648852, “Molecular drivers of resistance to sulbactam-durlobactam in contemporary clinical isolates of Acinetobacter baumannii” (Antimicrobial Agents and Chemotherapy, 2023)
Like-named read-outs stand apart in the source and are kept apart here.

Experiments:
[1] = tested on: ABC clinical isolates with SUL-DUR MIC > 4 µg/mL; test: microbe, parasite or virus in culture; assay type: cell-based, Acinetobacter baumannii-calcoaceticus complex
In short: (§1)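 Broth microdilution MICs following CLSI methods, interpreted with CLSI breakpoints where available. Sulbactam tested as twofold dilutions combined with fixed 4 µg/mL durlobactam.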

[2] = tested on: A. baumannii clinical isolates; test: microbe, parasite or virus in culture; assay type: cell-based; details: Acinetobacter baumannii
In short: as §1

CC1(C)[C@H](C(=O)O)N2C(=O)C[C@H]2S1(=O)=O [sulbactam]
%NS (% non-susceptibility) ([1]; 64 non-clonal ABC isolates, 2023 CLSI breakpoints plus FDA breakpoint of 4 µg/mL for SUL-DUR): 100% | MIC50 ([1]; Acinetobacter): > 64 µg/mL | MIC90 ([1]; Acinetobacter): > 64 µg/mL | MIC ([1]; Acinetobacter, read-out: MIC Max): > 64 µg/mL | MIC ([1]; Acinetobacter, read-out: MIC Min): 8 µg/mL | MIC ([2]; isolate ARC6644 (IHMA 1420327), Mexico, UTI, 2016, read-out: MIC): 64 µg/mL | MIC ([2]; isolate ARC6645 (IHMA 1435703), France, UTI, 2016, read-out: MIC): > 64 µg/mL | MIC ([2]; isolate ARC6646 (IHMA 1484127), United States, RTI, 2016, read-out: MIC): > 64 µg/mL | MIC ([2]; isolate ARC6647 (IHMA 1386786), Argentina, RTI, 2016, read-out: MIC): > 64 µg/mL | MIC ([2]; isolate ARC6648 (IHMA 1407634), Spain, RTI, 2016, read-out: MIC): 64 µg/mL | MIC ([2]; isolate ARC6650 (IHMA 1457337), Argentina, RTI, 2016, read-out: MIC): 64 µg/mL | MIC ([2]; isolate ARC6652 (IHMA 1465642), Belgium, RTI, 2016, read-out: MIC): > 64 µg/mL | MIC ([2]; isolate ARC6653 (IHMA 1308777), Vietnam, RTI, 2016, read-out: MIC): > 64 µg/mL | MIC ([2]; isolate ARC6799 (IHMA 1562935), Spain, UTI, 2017, read-out: MIC): > 64 µg/mL | MIC ([2]; isolate ARC6800 (IHMA 1557526), Turkey, RTI, 2017, read-out: MIC): 64 µg/mL | MIC ([2]; isolate ARC6801 (IHMA 1662094), Thailand, RTI, 2017, read-out: MIC): 64 µg/mL | MIC ([2]; isolate ARC6802 (IHMA 1557073), Spain, UTI, 2017, read-out: MIC): > 64 µg/mL | MIC ([2]; isolate ARC6803 (IHMA 1589408), Belgium, UTI, 2017, read-out: MIC): > 64 µg/mL | MIC ([2]; isolate ARC6805 (IHMA 1558650), United States, RTI, 2017, read-out: MIC): 64 µg/mL | MIC ([2]; isolate ARC6808 (IHMA 1557168), Spain, RTI, 2017, read-out: MIC): 16 µg/mL | MIC ([2]; isolate ARC6809 (IHMA 1699528), Guatemala, RTI, 2017, read-out: MIC): > 64 µg/mL | MIC ([2]; isolate ARC6810 (IHMA 1699548), Guatemala, RTI, 2017, read-out: MIC): > 64 µg/mL | MIC ([2]; isolate ARC6812 (IHMA 1699530), Guatemala, RTI, 2017, read-out: MIC): > 64 µg/mL | MIC ([2]; isolate ARC6813 (IHMA 1699543), Guatemala, UTI, 2017, read-out: MIC): > 64 µg/mL | MIC ([2]; isolate ARC6814 (IHMA 1699512), Guatemala, RTI, 2017, read-out: MIC): > 64 µg/mL | MIC ([2]; isolate ARC6815 (IHMA 1699513), Guatemala, RTI, 2017, read-out: MIC): > 64 µg/mL | MIC ([2]; isolate ARC6816 (IHMA 1699521), Guatemala, RTI, 2017, read-out: MIC): > 64 µg/mL | MIC ([2]; isolate ARC6817 (IHMA 1699523), Guatemala, RTI, 2017, read-out: MIC): > 64 µg/mL | MIC ([2]; isolate ARC6818 (IHMA 1683261), Thailand, RTI, 2017, read-out: MIC): 64 µg/mL | MIC ([2]; isolate ARC6819 (IHMA 1683267), Thailand, RTI, 2017, read-out: MIC): > 64 µg/mL | MIC ([2]; isolate ARC6820 (IHMA 1647876), Argentina, RTI, 2017, read-out: MIC): > 64 µg/mL | MIC ([2]; isolate ARC6821 (IHMA 1699517), Guatemala, RTI, 2017, read-out: MIC): > 64 µg/mL | MIC ([2]; isolate ARC6822 (IHMA 1637626), Guatemala, RTI, 2017, read-out: MIC): > 64 µg/mL | MIC ([2]; isolate ARC6823 (IHMA 1620872), Greece, SSSI, 2017, read-out: MIC): 32 µg/mL | MIC ([2]; isolate ARC6824 (IHMA 1625487), Argentina, BSI, 2017, read-out: MIC): 64 µg/mL | MIC ([2]; isolate ARC6937 (IHMA 1562926), Spain, UTI, 2017, read-out: MIC): > 64 µg/mL | MIC ([2]; isolate ARC6950 (IHMA 1820064), Israel, RTI, 2018, read-out: MIC): 64 µg/mL | MIC ([2]; isolate ARC6953 (IHMA 1909827), Turkey, IAI, 2018, read-out: MIC): 64 µg/mL | MIC ([2]; isolate ARC6954 (IHMA 1838192), Guatemala, SSSI, 2018, read-out: MIC): > 64 µg/mL | MIC ([2]; isolate ARC6955 (IHMA 1825425), United States, RTI, 2018, read-out: MIC): 16 µg/mL | MIC ([2]; isolate ARC7008 (IHMA 2009813), Thailand, BSI, 2019, read-out: MIC): > 64 µg/mL | MIC ([2]; isolate ARC7009 (IHMA 2043611), United States, UTI, 2019, read-out: MIC): > 64 µg/mL | MIC ([2]; isolate ARC7010 (IHMA 2043398), United States, RTI, 2019, read-out: MIC): > 64 µg/mL | MIC ([2]; isolate ARC7011 (IHMA 2104553), Germany, RTI, 2019, read-out: MIC): > 64 µg/mL | MIC ([2]; isolate ARC7012 (IHMA 2010001), Thailand, RTI, 2019, read-out: MIC): > 64 µg/mL | MIC ([2]; isolate ARC7013 (IHMA 1962831), Argentina, RTI, 2019, read-out: MIC): > 64 µg/mL | MIC ([2]; isolate ARC7014 (IHMA 2045328), Guatemala, IAI, 2019, read-out: MIC): 64 µg/mL | MIC ([2]; isolate ARC7015 (IHMA 2045327), Guatemala, UTI, 2019, read-out: MIC): > 64 µg/mL | MIC ([2]; isolate ARC7016 (IHMA 2148441), Brazil, BSI, 2019, read-out: MIC): 64 µg/mL
